From patent US20040228930A1, “Treatment for hemorrhagic shock” (priority 2002, published 2004)

Assays:
Type in all cases: in vivo
[1] = test system: il-10−/− mice subjected to HS/R; assay: Serum ALT in il-10−/− mice subjected to HS/R
Protocol: (§1) Hemorrhagic shock was induced in mice as follows: C57/BL6 or il-10^−/− mice (Jackson Laboratories) (n=3/group) weighing 20-26 grams were anesthetized with pentobarbital (70 mg/kg; IP). The right and left femoral arteries were cannulated. The left arterial catheter was connected to a monitor to follow MAP and heart rate. Over 10 minutes, blood was withdrawn via the right catheter while monitoring blood pressure to achieve an MAP of 25 mmHg. Blood was withdrawn and returned to the animal as necessary in order to maintain a MAP of 25 mmHg. Sham animals were cannulated but not subjected to hemorrhage. At the end of the shock period (90-150 minutes), mice were resuscitated with the shed blood plus two times that volume with Ringer's lactate solution over 15-30 minutes. Animals were sacrificed 4-24 hours following the initiation of resuscitation and blood, liver, lungs, and intestines were collected.
A colorimetric analysis for serum alanine aminotransferase (ALT) level was used to determine whether liver injury occurred in mice subjected to HS/R. The alanine aminotransferase test is one of a group of tests known as liver function tests and is used to monitor damage to the liver. Alanine aminotransferase is an enzyme that is normally expressed in the liver and under normal circumstances is present in serum samples at very low levels. […]

mice subjected to HS/R [2] = assay: Intestinal histology (H&E) in mice subjected to HS/R; details: CO 250 ppm throughout HS/R, 4 hours after resuscitation
Protocol: as §1
Harvested intestines were flushed and fixed in 2% paraformaldehyde for 2 hours and then 30% sucrose for 12 hours. Specimens were frozen slowly in cold 2-methylbutane. Sections were stained using hematoxylin and eosin (H&E) and architectural changes were evaluated.
Mice were exposed to CO at a concentration of 250 ppm. Briefly, 1% CO in air was mixed with air (21% oxygen) in a stainless steel mixing cylinder and then directed into a 3.70 ft^3 glass exposure chamber at a flow rate of 12 L/min. […]

IL-10 = assay: Serum IL-10 by ELISA in mice subjected to HS/R; details: CO 250 ppm throughout HS/R, 4 hours after resuscitation, P<0.05 vs sham and shock controls
Protocol: as §1
(§2) Serum levels of the cytokines interleukin-6 (IL-6), tumor necrosis factor alpha (TNF-α), and interleukin-10 (IL-10) were determined by enzyme-linked immunosorbent assay (ELISA) (R&D systems) according to the manufacturer's instructions. These cytokines were measured because they mediate inflammation. Levels of pro-inflammatory cytokines can increase following hemorrhagic shock and can exacerbate hemodynamics and contribute to the development of multiple organ dysfunction. […]

mice subjected to HS/R [3] = assay: Lung myeloperoxidase (MPO) activity in mice subjected to HS/R
[4] = test system: hemorrhage-induced liver hypoxia; assay: EF5 hypoxic imaging of liver in hemorrhaged mice
Protocol: as §1
The technique of observing uptake of EF5 (2-[2-nitro-1H-imidazol-1-yl]-N-(2,2,3,3,3-pentafluoropropyl) acetamide) to monitor tissue hypoxia is well established and reliable. […] Intensity of staining was determined by measuring mean fluorescence in 10 different sections per animal (n=5 per group; MetaMorph®). […] These forms of the compound bind irreversibly to proteins within the cell, which can then be detected by immunohistochemistry. […]

mice subjected to HS/R [5] = assay: Serum ALT (liver injury) in mice subjected to HS/R
Protocol: as §1
A colorimetric analysis for serum alanine aminotransferase (ALT) level was used to determine whether liver injury occurred in mice subjected to HS/R. The alanine aminotransferase test is one of a group of tests known as liver function tests and is used to monitor damage to the liver. Alanine aminotransferase is an enzyme that is normally expressed in the liver and under normal circumstances is present in serum samples at very low levels. Increased levels of ALT in the serum are indicative of liver cell death and/or liver failure.
Mice were exposed to CO at a concentration of 250 ppm. Briefly, 1% CO in air was mixed with air (21% oxygen) in a stainless steel mixing cylinder and then directed into a 3.70 ft^3 glass exposure chamber at a flow rate of 12 L/min. A CO analyzer (Interscan, Chatsworth, Calif.) was used to measure CO levels continuously in the chamber. CO concentrations were maintained at 250 ppm at all times. Mice were placed in the exposure chamber as required. […]

[6] = test system: il-10−/− mice subjected to HS/R; assay: Lung MPO activity in il-10−/− mice subjected to HS/R
IL-6 = assay: Serum IL-6 by ELISA in mice subjected to HS/R; details: CO 250 ppm throughout HS/R, 4 hours after resuscitation, P<0.05 vs untreated HS/R mice
Protocol: as §1, §2

[7] = CO 250 ppm throughout HS/R, 4 hours after resuscitation, P<0.05

[C-]#[O+] [CO, carbon monoxide]
protection against HS/R-induced liver injury (serum ALT) [1]: did not appear to protect | intestinal histology of CO-treated shocked mice (mice subjected to HS/R [2]): more closely resembled CO- and air-treated sham controls | increase in serum IL-10 levels in shocked mice (IL-10): 5.4 fold | lung MPO activity compared to untreated mice (mice subjected to HS/R [3]; [7]): significantly lowered | lung MPO activity (mice subjected to HS/R [3]; CO initiated during resuscitation only, after 4 hours): significantly improved | liver hypoxia (EF5) compared to air-treated sham controls ([4]; CO-treated sham controls, 250 ppm): no increase | increase in liver EF5 staining compared to air-treated sham controls ([4]; shocked mice, CO 250 ppm initiated at onset of shock, 90 minutes after initiation of shock, P<0.05 vs air-treated shocked mice): 3.7±0.7 fold | serum ALT compared to untreated mice (mice subjected to HS/R [5]; [7]): significantly lowered | serum ALT compared to untreated shocked mice (mice subjected to HS/R [5]; CO during resuscitation only, 24 hours after resuscitation): significantly lower | protection against liver injury (mice subjected to HS/R [5]; CO initiated during resuscitation only, 4-hour time point following resuscitation (data not shown)): no demonstrable protection | protection against HS/R-induced lung injury (lung MPO activity) [6]: did not appear to protect | HS/R-induced increase in serum IL-6 (IL-6): significantly abrogated
